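The compound was tested at five concentrations on cells cultured in 96-well plates, with a 48-hour exposure period. Abbreviation: GI50, concentration required for 50% inhibition of growth.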 Active and inactive are the calls of the source. Rule as the data show it: active = GI50 up to about 1.1 µM and inactive = higher.
What was measured:
Experiment in all cases: NCI-60 cell line screen, 48 h
[1] = tested on: ACHN
[2] = tested on: COLO 205
[3] = tested on: DU-145
[4] = tested on: HT-29
[5] = tested on: MCF7
[6] = tested on: MDA-N
[7] = tested on: NCI-H226
[8] = tested on: NCI-H460
[9] = tested on: NCI-H522
[10] = tested on: NCI/ADR-RES
[11] = tested on: OVCAR-5
[12] = tested on: OVCAR-8
[13] = tested on: PC-3
[14] = tested on: RXF 393
[15] = tested on: SF-268
[16] = tested on: SF-539
[17] = tested on: SK-MEL-5
[18] = tested on: TK-10
[19] = tested on: UACC-257
[20] = tested on: UACC-62

SMILES | GI50 [1] | GI50 [2] | GI50 [3] | GI50 [4] | GI50 [5] | GI50 [6] | GI50 [7] | GI50 [8] | GI50 [9] | GI50 [10] | GI50 [11] | GI50 [12] | GI50 [13] | GI50 [14] | GI50 [15] | GI50 [16] | GI50 [17] | GI50 [18] | GI50 [19] | GI50 [20]
Cc1cc(NS(=O)(=O)c2ccc(NC(=O)c3ccc4nc5ccccc5c(Nc5ccc(S(N)(=O)=O)cc5)c4c3)cc2)no1 | 21.3 µM (inactive) | 20.6 µM (inactive) | 48.3 µM (inactive) | 28.6 µM (inactive) | 19.9 µM (inactive) | 25.6 µM (inactive) | > 100 µM (inactive) | 20.7 µM (inactive) | 17.8 µM (inactive) | 31.8 µM (inactive) | 27 µM (inactive) | 24.6 µM (inactive) | 32.3 µM (inactive) | 23.4 µM (inactive) | 30.5 µM (inactive) | 27.9 µM (inactive) | 25.1 µM (inactive) | 30.5 µM (inactive) | 22 µM (inactive) | 29.7 µM (inactive)
S=c1ssc2c3ssc(=S)c3n(Cc3ccccc3)c12 | > 100 µM (inactive) | > 100 µM (inactive) | 54 µM (inactive) | > 100 µM (inactive) | 81.3 µM (inactive) | > 100 µM (inactive) | > 100 µM (inactive) | > 100 µM (inactive) | 83.2 µM (inactive) | > 100 µM (inactive) | > 100 µM (inactive) | 74.8 µM (inactive) | 74.6 µM (inactive) | 0.494 µM (active) | 59.2 µM (inactive) | 21.3 µM (inactive) | > 100 µM (inactive) | > 100 µM (inactive) | > 100 µM (inactive) | 40.3 µM (inactive)
O=C(NNC(=S)Nc1cccc(Cl)c1)c1cc(-c2ccccc2)nc2ccccc12 | 16.3 µM (inactive) | 12.9 µM (inactive) | 15.6 µM (inactive) | 20.4 µM (inactive) | 10 µM (inactive) | 18.3 µM (inactive) | 20 µM (inactive) | 18.6 µM (inactive) | 14.5 µM (inactive) | 20.4 µM (inactive) | 15.4 µM (inactive) | 20.7 µM (inactive) | 15.1 µM (inactive) | 16.1 µM (inactive) | 17 µM (inactive) | 15.1 µM (inactive) | 16.9 µM (inactive) | 15.4 µM (inactive) | 15.7 µM (inactive) | 13.4 µM (inactive)
CCOP(=O)(COCCn1ncc(=O)[nH]c1=O)OCC | > 100 µM (inactive) | > 100 µM (inactive) | > 100 µM (inactive) | > 100 µM (inactive) | > 100 µM (inactive) | > 100 µM (inactive) | > 100 µM (inactive) | > 100 µM (inactive) | > 100 µM (inactive) | > 100 µM (inactive) | > 100 µM (inactive) | > 100 µM (inactive) | > 100 µM (inactive) | > 100 µM (inactive) | > 100 µM (inactive) | > 100 µM (inactive) | > 100 µM (inactive) | > 100 µM (inactive) |  | 
CSc1nc(NC2CCCC2)c2cc[nH]c2n1 | 64.7 µM (inactive) | 48.4 µM (inactive) | > 100 µM (inactive) | 37.1 µM (inactive) | 57.3 µM (inactive) | 54.3 µM (inactive) | 87.5 µM (inactive) | > 100 µM (inactive) | 66.8 µM (inactive) | 71.1 µM (inactive) |  | 89.1 µM (inactive) | 43.5 µM (inactive) | > 100 µM (inactive) | 68.7 µM (inactive) | > 100 µM (inactive) | 35.2 µM (inactive) | 72.6 µM (inactive) | 55.5 µM (inactive) | 23.5 µM (inactive)
O=c1cnn(C/C=C/CBr)c(=O)[nH]1 | 16.7 µM (inactive) | 18.8 µM (inactive) | 24.2 µM (inactive) | 13.8 µM (inactive) | 12.9 µM (inactive) | 14.7 µM (inactive) | 17 µM (inactive) | 17.2 µM (inactive) | 8.17 µM (inactive) | 23.3 µM (inactive) | 17.4 µM (inactive) | 23.1 µM (inactive) | 14.9 µM (inactive) | 15.5 µM (inactive) | 17.1 µM (inactive) | 16.1 µM (inactive) | 13.1 µM (inactive) |  | 13.9 µM (inactive) | 
O=C(OC1C#CCSCC#C/C=C\1)c1cnc2ccccc2n1 (centres undefined) | > 100 µM (inactive) | 14.6 µM (inactive) | > 100 µM (inactive) | > 100 µM (inactive) | > 100 µM (inactive) | > 100 µM (inactive) | 79.4 µM (inactive) | 14.1 µM (inactive) | > 100 µM (inactive) | 0.805 µM (active) | > 100 µM (inactive) | 0.409 µM (active) | > 100 µM (inactive) | 79.8 µM (inactive) | > 100 µM (inactive) | > 100 µM (inactive) |  | > 100 µM (inactive) | > 100 µM (inactive) | > 100 µM (inactive)
